The results in this text go back to patent US20230053688A1, “METHODS TO ALTER LATENCY IN EBV+ MALIGNANCIES” (Cornell University, priority 2020, published 2023).

Structures can show the parent of a compound that is named as a salt. Where two headings read alike, the source gives them in different places.

The test system of the test is LMP1 expression in Kem I cells. The test can be described thus: microbe, parasite or virus in culture. Particulars: for Average LMP1 Fold Increase / Replicate 1-LMP1 Fold Increase / Replicate 2-LMP1 Fold Increase: Kem I cells, 2.5 uM, 48 hours; for Average LMP1 Fold Increase: average of replicates 1 and 2; for Replicate 1-LMP1 Fold Increase / Replicate 2-LMP1 Fold Increase: fold change in LMP1 transcript vs vehicle; for fold induction at 2.5 µM / fold induction at 1 µM: human gammaherpesvirus 4, 48 h. It is filed as cell-based, EBV.

The mark [1] stands for this setting: read-out: Average LMP1 Fold Increase, Kem I cells, 2.5 uM, 48 hours, average of replicates 1 and 2.
[2] abbreviates: read-out: Replicate 1-LMP1 Fold Increase, Kem I cells, 2.5 uM, 48 hours, fold change in LMP1 transcript vs vehicle.
The mark [3] stands for this setting: read-out: Replicate 2-LMP1 Fold Increase, Kem I cells, 2.5 uM, 48 hours, fold change in LMP1 transcript vs vehicle.

On to `Cc1cn(-c2cc(NC(=O)c3ccc(C)c(Nc4nccc(-c5cccnc5)n4)c3)cc(C(F)(F)F)c2)cn1` [Nilotinib (AMN-107)], for which the “Average LMP1 Fold Increase” value came to 0.27, the “Replicate 1-LMP1 Fold Increase” value is recorded as 0.20 and the “Replicate 2-LMP1 Fold Increase” value was 0.33.
In the case of `COC(=O)C1=C(C#N)NC(C)=C(C(=O)OC(C)C)C1c1cccc([N+](=O)[O-])c1` (stereo not drawn) [Nilvadipine], the fold induction at 2.5 µM by setting is: under setting [1], 0.72; under setting [2], 0.96; under setting [3], 0.47.
Consider `Cc1c(Cc2ccc3ccccc3n2)c2cc(F)ccc2n1CC(=O)O` [OC000459], for which the fold induction at 2.5 µM reads like this: under setting [1], 0.56; under setting [2], 0.64; under setting [3], 0.48.
Regarding `C#Cc1cccc(Nc2ncnc3cc(OCCOC)c(OCCO)cc23)c1` [OSI-420], the “Average LMP1 Fold Increase” value came to 0.66, the “Replicate 1-LMP1 Fold Increase” value is on record as 0.84 and the “Replicate 2-LMP1 Fold Increase” value came out at 0.49.
With `C[C@]1(O)C[C@@H](c2nc(-c3ccc4ccc(-c5ccccc5)nc4c3)c3c(N)nccn32)C1` [OSI-906 (Linsitinib)], the “Average LMP1 Fold Increase” value is on record as 0.81, the “Replicate 1-LMP1 Fold Increase” value amounted to 0.68 and the “Replicate 2-LMP1 Fold Increase” value is 0.94.
On to `NCC(=O)Nc1ccc(-n2nc(C(F)(F)F)cc2-c2ccc3c(ccc4ccccc43)c2)cc1` [OSU-03012 (AR-12)], for which the “Average LMP1 Fold Increase” value was determined as 0.95, the “Replicate 1-LMP1 Fold Increase” value amounted to 0.79 and the “Replicate 2-LMP1 Fold Increase” value is listed as 1.12.
As for `Cc1sc2c(c1C)C(c1ccc(Cl)cc1)=N[C@@H](CC(=O)Nc1ccc(O)cc1)c1nnc(C)n1-2` [OTX015], the fold induction at 2.5 µM under setting [1] worked out at 0.63, the fold induction at 2.5 µM under setting [2] was determined as 0.14 and the fold induction at 2.5 µM under setting [3] stood at 1.12.
`COC1=CC(c2cc3ccccc3[nH]2)=N/C1=C\c1[nH]c(C)cc1C` [Obatoclax]: the fold induction at 1 µM (read-out: Average LMP1 Fold Increase, Kem I cells, 1 uM, 48 hours, average of replicates 1 and 2) was 13.7; the fold induction at 1 µM (read-out: Replicate 1-LMP1 Fold Increase, Kem I cells, 1 uM, 48 hours, fold change in LMP1 transcript vs vehicle) amounted to 24.3; the fold induction at 1 µM (read-out: Replicate 2-LMP1 Fold Increase, Kem I cells, 1 uM, 48 hours, fold change in LMP1 transcript vs vehicle) amounted to 3.03.
For `CC(C)(F)C[C@H](N[C@@H](c1ccc(-c2ccc(S(C)(=O)=O)cc2)cc1)C(F)(F)F)C(=O)NC1(C#N)CC1` [Odanacatib (MK-0822)], the “Average LMP1 Fold Increase” value was determined as 0.56, the “Replicate 1-LMP1 Fold Increase” value came out at 0.58 and the “Replicate 2-LMP1 Fold Increase” value amounted to 0.54.
With `CC[C@@H]1/C=C/C=C/C[C@H](C)[C@H](O)[C@](C)(O)C(=O)[C@H](C)[C@@H](O)[C@H](C)C(=O)[C@H](C)[C@@H](O)[C@H](C)/C=C/C(=O)O[C@H]2[C@@H](C)[C@@H](CC1)O[C@@]1(CC[C@@H](C)[C@@H](C[C@H](C)O)O1)[C@@H]2C` [Oligomycin A], the “Average LMP1 Fold Increase” value came to 1.40, the “Replicate 1-LMP1 Fold Increase” value turned out to be 1.03 and the “Replicate 2-LMP1 Fold Increase” value was found to be 1.76.
For `CCc1c(C(=O)NCCc2ccc(N3CCCCC3)cc2)[nH]c2ccc(Cl)cc12` [Org 27569] the same measures were 0.51, 0.49 and 0.53.
On to `C[C@@H]1O[C@@H](O[C@H]2C[C@@H](O)[C@]3(CO)[C@H]4[C@H](O)C[C@]5(C)[C@@H](C6=CC(=O)OC6)CC[C@]5(O)[C@@H]4CC[C@]3(O)C2)[C@H](O)[C@H](O)[C@H]1O` [Ouabain], for which the fold induction at 2.5 µM under setting [1] is 92.1, the fold induction at 2.5 µM under setting [2] was determined as 22.8 and the fold induction at 2.5 µM under setting [3] is 161.
As for `NC(=O)N1c2ccccc2CC(=O)c2ccccc21` [Oxcarbazepine], the fold induction at 2.5 µM under setting [1] is 0.46, the fold induction at 2.5 µM under setting [2] was found to be 0.54 and the fold induction at 2.5 µM under setting [3] came to 0.38.
On to `Cc1cc(C(C)(C)C)c(O)c(C)c1CC1=NCCN1` [Oxymetazoline HCl], for which the fold induction at 2.5 µM by setting is: under setting [1], 0.66; under setting [2], 0.6; under setting [3], 0.72.
With `O=C(O)/C=C/c1ccc(Cn2ccnc2)cc1` [Ozagrel HCl], the “Average LMP1 Fold Increase” value came out at 0.79, the “Replicate 1-LMP1 Fold Increase” value worked out at 0.85 and the “Replicate 2-LMP1 Fold Increase” value is 0.72.
`O=C(O)/C=C/c1ccc(Cn2ccnc2)cc1` [Ozagrel]: the “Replicate 2-LMP1 Fold Increase” value is given as 1.55. Besides, under setting [1], the fold induction at 2.5 µM was determined as 1.41. The fold induction at 2.5 µM under setting [2] stood at 1.27.
`CC(=O)c1cc([N+](=O)[O-])c(Sc2ccc(F)cc2F)s1` [P22077]: the “Average LMP1 Fold Increase” value stood at 0.25, the “Replicate 1-LMP1 Fold Increase” value was found to be 0.20 and the “Replicate 2-LMP1 Fold Increase” value amounted to 0.29.
`C=CCc1cccc(/C=N/NC(=O)CN2CCN(Cc3ccccc3)CC2)c1O` [PAC-1]: the “Average LMP1 Fold Increase” value worked out at 0.78, the “Replicate 1-LMP1 Fold Increase” value was 0.78 and the “Replicate 2-LMP1 Fold Increase” value is 0.78.
As to `O=C(NOCC1CC1)c1ccc(F)c(F)c1Nc1ccc(I)cc1Cl` [PD184352 (CI-1040)], the “Average LMP1 Fold Increase” value worked out at 0.66, the “Replicate 1-LMP1 Fold Increase” value is given as 0.65 and the “Replicate 2-LMP1 Fold Increase” value is listed as 0.66.
As to `O=C(NOC[C@H](O)CO)c1ccc(F)c(F)c1Nc1ccc(I)cc1F` [PD0325901], the fold induction at 2.5 µM runs as follows: under setting [1], 0.47; under setting [2], 0.68; under setting [3], 0.27.
Take `O=C(Nc1cccnc1)N1CCC(Cc2cccc(Oc3ccc(C(F)(F)F)cn3)c2)CC1` [PF-3845]: the “Average LMP1 Fold Increase” value is 0.32, the “Replicate 1-LMP1 Fold Increase” value is listed as 0.16 and the “Replicate 2-LMP1 Fold Increase” value was 0.48.
On to `CN(c1ncccc1CNc1nc(Nc2ccc3c(c2)CC(=O)N3)ncc1C(F)(F)F)S(C)(=O)=O` [PF-562271], for which the “Average LMP1 Fold Increase” value is 0.50, the “Replicate 1-LMP1 Fold Increase” value stood at 0.81 and the “Replicate 2-LMP1 Fold Increase” value is given as 0.19.
As for `CS(=O)(=O)c1cccc(CNc2nc(Nc3ccc4c(c3)CCC(=O)N4)ncc2C(F)(F)F)c1` [PF-573228], the “Average LMP1 Fold Increase” value is reported as 0.66, the “Replicate 1-LMP1 Fold Increase” value stood at 0.87 and the “Replicate 2-LMP1 Fold Increase” value was found to be 0.45.
Take `OCCn1cc(-c2cnc3nnn(Cc4ccc5ncccc5c4)c3n2)cn1` [PF-04217903]: the “Average LMP1 Fold Increase” value was found to be 1.03, the “Replicate 1-LMP1 Fold Increase” value worked out at 0.96 and the “Replicate 2-LMP1 Fold Increase” value is 1.11.
For `CCc1cncnc1N1CCN(Cc2nc3ccc(C(F)(F)F)cc3[nH]2)CC1` [PF-4708671] the same measures were 0.74, 1.30 and 0.18.
On the same counts, the results for `Cc1cnc(-c2cc(N3CCN(C(=O)CCS(C)(=O)=O)CC3)ncc2Cl)c(C)c1` [PF-5274857] are 0.87, 1.12 and 0.62.
For `COc1ccccc1S(=O)(=O)Nc1ccc2c(c1)CN(C)C(=O)N2` [PFI-1 (PF-6405761)] the same measures were 0.78, 0.42 and 1.15.
For `Cc1[nH]c(/C=C2\C(=O)Nc3ccc(S(=O)(=O)Cc4c(Cl)cccc4Cl)cc32)c(C)c1C(=O)N1CCC[C@@H]1CN1CCCC1` [PHA-665752], the fold induction at 2.5 µM was 0.69 under setting [1], 0.55 under setting [2] and 0.84 under setting [3].
